The values that follow come from patent publication US20240252586A1, “ENGINEERED ANTIMICROBIAL PEPTIDES AND USAGE THEREOF” (priority 2021, published 2024).

Where “and” joins values, the source holds several entries; their conditions need not be identical. Identical values can stand only once. Like-named read-outs stand apart in the source and are kept apart here.

The test system of test [1] is E. Coli ATCC 25922. How it is done: (§1) SEQ ID NO: 1 stocks were made at 5.12 mg/mL in water adjusted to pH of 5.0 with 1% glacial acetic acid.
(§2) The test organisms (Table 7) consisted of clinical isolates from the Micromyx (MMX) repository, a reference isolate from the American Type Culture Collection (ATCC, Manassas, VA) and the Centers for Disease Control (CDC, Atlanta GA). Upon initial receipt, the isolates were streaked under suitable conditions onto agar medium appropriate to each organism. The organisms were incubated for 18-24 hr at 35° C. in ambient atmosphere. Colonies harvested from these growth plates were resuspended in the appropriate medium containing a cryoprotectant. Aliquots of each suspension were then stored frozen at −80° C. Prior to testing, all organisms were cultured onto trypticase soy agar containing 5% sheep blood. The agar plates were incubated as described above.
(§3) The Test media used for MIC and FIC were testing were cation-adjusted Mueller-Hinton broth (CAMHB) and Roswell Park Memorial Institute (RPMI-1640), buffered with 3-(N-morpholino)propanesulfonic acid (MOPS). Each test media was supplemented with 0.002% Tween-80 (P-80) prior to testing.
(§4) MIC assay plates were prepared for broth microdilution in accordance with guidelines from the Clinical and Laboratory Standards Institute (CLSI); automated liquid handlers (Biomek 3000 and Biomek FX) and multi-channel pipettes were used to conduct serial dilutions and liquid transfers. MIC assay plates were prepared using a 96-well, deep-well microdilution plate that mimicked the layout of the daughter plates.
(§5) For the mother plate, wells across the standard 96-well microdilution plate were filled with 150 μL of sterile saline 0.002% P-80 in columns 2 through 12. […] The Biomek 300 was used to make eleven 2-fold serial dilutions horizontally across each row of the plate from columns 2 through 11. The Biomek FX was then used to transfer 5 μL of the SEQ ID NO: 1 and saline 0.002% P-80 to the daughter plates.
(§6) A standardized inoculum of each organism was prepared per CLSI methods. Suspensions were prepared to equal a 0.5 McFarland standard followed by a 1:10 dilution into test medium. The inocula were dispensed into sterile reservoirs divided by length and the Biomek 3000 was used to inoculate the plates. Daughter plates were placed on the Biomek 3000 work surface in reverse orientation so that inoculation took place from low to high drug concentration. The Biomek 3000 delivered 10 μL of the diluted suspension into each well. These inoculations yielded a final cell concentration in the daughter plates of approximately 5×10^5 CFU/mL in each well. Plates were incubated at 35° C. for 16-20 hr. The microplates were viewed from the bottom using a plate viewer and the MIC was recorded as the lowest concentration of drug that inhibited visible growth of the organism.

The subject of test [2] is E. Coli ATCC BAA-2469. How it is done: as §1, §2, §3, §4, §5, §6
In test [3] the test system is E. Coli CDC 0451. How it is done: as §1, §2, §3, §4, §5, §6
Test [4] concerns P. aeruginosa ATCC 27853. As to the method: as §1, §2, §3, §4, §5, §6
For test [5], the system named is P. aeruginosa CDC 0509. As to the method: as §1, §2, §3, §4, §5, §6
Test [6] deals with P. aeruginosa CDC 0515. How it is done: as §1, §2, §3, §4, §5, §6
In test [7] the test system is S. aureus ATCC 29213. How it is done: as §1, §2, §3, §4, §5, §6
Test [8] relates to S. aureus NRS 382. How it is done:
as §1, §2, §3, §4, §5, §6

Test [9] deals with S. aureus NRS 384. How it is done: as §1, §2, §3, §4, §5, §6
Test [10] has as its system S. epidermidis MMX 3628. How it is done:
as §1, §2, §3, §4, §5, §6

Test [11] deals with S. epidermidis MMX 5129. As to the method: as §1, §2, §3, §4, §5, §6
The test system of test [12] is S. epidermidis MMX 8655. As to the method: as §1, §2, §3, §4, §5, §6
In test [13] the test system is P. aeruginosa CDC 0515. The note with it: for FICA / MICA: RPMI; for MICA: in combination with SEQ ID NO: 1. How it is done:
FIC test ranges were set based on broth microdilution MIC test data. FIC assay plates were prepared in accordance with CLSI guidelines for broth microdilution susceptibility testing; automated liquid handlers, and multi-channel pipettes were used to conduct serial dilutions and liquid transfers.
SEQ ID NO: 1 was tested at two concentration ranges depending on the test media. All organisms tested in CAMHB 0.002% P-80 were tested from 0.015-16 μg/mL; when tested in RPMI 0.002% P-80, the range tested was 0.004-4 μg/mL. For each SEQ ID NO: 1 mother, wells across the standard 96-well microdilution plate were filled with 150 μL of sterile saline 0.002% P-80 in columns 2 through 12. A 300 μL aliquot at 20× the highest final concentration of each dilution range to be tested, was added to each well in column 1 of the plate. The Biomek 3000 was used to make eleven 2-fold serial dilutions horizontally across each row of the plate columns 2 through 11.
The daughter plates were then completed using the Biomek FX to transfer 5 μL of drug solution from each well of the SEQ ID NO: 1 mother plates to the corresponding well in each daughter plate in a single step. […] The preparation of the daughter plates was performed for each media type; two times in total as all organisms were tested in both media types.
A standard inoculum for each organism was prepared per CLSI method. Colonies were picked up from the primary plate and a suspension was prepared equal to 0.5 McFarland turbidity standard. The suspensions were additionally diluted 1:10 in the appropriate broth. A 10 μL standardized inoculum was delivered into each well using the Biomek 3000 from low to high concentration. These inoculations yielded a final cell concentration in the daughter plates of approximately 5×10^5 CFU/mL in each well. […] Exemplary checkboard panels are seen in Table 5 and Table 6. Plates were incubated at 35° C. for 16-20 hr.
The MIC of the horizontal agent (row H) and the MIC of the vertical agent (column 12) were recorded and the wells of the growth-no growth interface for wells containing agents in combination at varying ratios were recorded by row. […] Pinpoint trailing was not interpreted as growth.
For each relevant row of the panel, the FICI was calculated as:
FICdrug A/MICdrug A+FICdrug B/MICdrug=FICI
Mean FICI values were determined for each combination tested by averaging the FICI values as observed on each row of the checkerboard assay (See Table 9, e.g., if there were FICI values for B-G, those FICI values were added together and divided by the number of rows the FICI values which in this case is 6 to get the mean FICI value for that combination).
Using the criteria described by: Odds FC. 2003. Synergy, antagonism, and what the chequerboard puts between them. J Antimicrob Chemother 52(1):1, the mean FICI for the combination was interpreted as follows: ≤0.5=synergy, >0.5-4=additive/indifferent, and >4=antagonism. […] An interpretation of indifference is consistent with growth inhibition at concentrations at or slightly below/above the MICs of the individual agents alone, resulting in a FICI value of >0.5 but […].

Test [14] has as its system Staphylococcus aureus NRS 382 (USA100 MRSA) biofilm. The experiment in a line: Wire biofilm time-kill assay (Study 3). The note with it: 150 mM sodium bicarbonate, 1 mg/mL; for CFU/mL: per replicate. It counts as cell-based. From the text:
Study 3. […]
These three vehicles without SEQ ID NO: 1 served as the untreated controls. Double strength Dey/Engley neutralizing broth was used as a neutralizer for dilution and plating during determination of colony-forming units (CFU)/mL at each time point.
In order to establish the biofilm on the wires, the following procedure was followed: An overnight culture of each isolate was made in Tryptic soy broth. K-wires that were cut to 6 mm and sterilized by autoclaving were placed in 24 well plates and inoculated with 1 mL of a normalized bacterial suspension containing approximately 1×10^6 CFU/mL in cation-adjusted Mueller-Hinton broth. The plates containing the wires were incubated for 24 hr at 35° C. followed by removing the planktonic cells by carefully pipetting the medium from the wells. Fresh CAMHB (1 mL) was added to the wells containing the wires and the plates were incubated for an additional 24 hr at 35° C.
After the biofilm was established, the wires were removed from the wells using sterile forceps, rinsed with 1 mL of PBS, and placed in the appropriate treatment well containing 0, 1, 5, or 10 mg/mL SEQ ID NO: […] After the designated time, each wire was removed, rinsed with 1 mL of PBS, and then placed in an Eppendorf tube with 1 mL of double strength Dey-Engley medium. The wires were then sonicated at room temperature for 10 min to dislodge bacteria using a Lab Line Instruments sonicator at a setting of 100%.
A 0.2 mL aliquot of sonicate was removed and pipetted into column 1 of a 96-well plate that contained 180 μL of double strength Dey-Engley medium in columns 2 through 5. […] The plate was then tilted at a […] to allow the diluted sample to track across the agar surface to the opposite side of the plate. The plates were laid flat, allowed to dry at room temperature, then inverted and incubated at 35° C. for approximately 24 hr. Colonies were manually counted to determine the viable count in CFU/mL.

By MIC is commonly meant the lowest concentration found to suppress growth. Low values mean greater potency, high ones weaker potency. Turning to `O=C([O-])O.[Na+]` [Sodium Bicarbonate], the MIC came out at 200 mM in test [1] (CAMHB); 200 mM in test [1] (RPMI); 200 mM in test [2] (CAMHB); 200 mM in [2] (RPMI); 100 mM in test [3] (CAMHB); 200 mM in test [3] (RPMI). In addition, the minimal inhibitory concentration (MIC) in test [4] (CAMHB), in test [4] (RPMI), in test [5] (CAMHB), in test [5] (RPMI), in [6] (CAMHB) and in test [6] (RPMI) was 200 mM throughout. Further, the MIC is listed as greater than 200 mM in test [7] (CAMHB); 200 mM in test [7] (RPMI); 200 mM in test [8] (CAMHB); 200 mM in [8] (RPMI); 200 mM in [9] (CAMHB); 200 mM in [9] (RPMI). In addition, the MIC in [10] (CAMHB) stood at 100 mM; in [10] (RPMI), 200 mM; in test [11] (CAMHB), 200 mM; in [11] (RPMI) it was 200 mM; in test [12] (CAMHB) it was 200 mM; in test [12] (RPMI), 200 mM. Further, in [13] (CAMHB, alone), the “Drug A MIC” value is recorded as greater than 100. Moreover, the FICA is listed as 0.5 in test [13] (checkerboard row A); 0.25 in [13] (checkerboard row B); 0.125 in test [13] (checkerboard row C); 0.063 in [13] (checkerboard row D); 0.031 in test [13] (checkerboard row E); 0.016 in test [13] (checkerboard row F). Besides, the FICA in test [13] (checkerboard row G) is reported as 0.008. Further, the MICA in test [13] (checkerboard row A) is 100; in [13] (checkerboard row B) it was 50; in [13] (checkerboard row C) it was 25; in test [13] (checkerboard row D), 12.5; in test [13] (checkerboard row E), 6.25; in test [13] (checkerboard row F), 3.12. The MICA in [13] (checkerboard row G) stood at 1.56.
Take SEQ ID: 1 (RRWVRRVRRVWRRVVRVVRRWVRR): the “Mean CFU/mL” value in [14] (0 min) was 1.08E+5 CFU/mL; in test [14] (1 min), 1.68E+3 CFU/mL; in test [14] (5 min), 5.00E+1 CFU/mL; in test [14] ([…]) it was 1.17E+2 CFU/mL. The CFU/mL was 4.80E+04 CFU/mL and 1.50E+05 CFU/mL and 1.25E+05 CFU/mL in test [14] (0 min); 8.00E+02 CFU/mL and 3.15E+03 CFU/mL and 1.10E+03 CFU/mL in [14] (1 min); 5.00E+01 CFU/mL in test [14] (5 min). The “CFU/mL 2” value in test [14] (5 min) is 0 CFU/mL; in test [14] ([…]) it was 1.00E+02 CFU/mL.
